Test results: patent publication US10246420B2, “Pyrazole derivatives” (BAYER CROPSCIENCE AKTIENGESELLSCHAFT, priority 2014, dated 2019)
Like-named read-outs stand apart in the source and are kept apart here.

Assays:
[1] = Log P by HPLC on reversed phase columns (EEC directive 79/831 Annex V.A8); format: physicochemical
Description: Measurement of Log P values was performed according to EEC directive 79/831 Annex V.A8 by HPLC (High Performance Liquid Chromatography) on reversed phase columns with the following methods:
[^a] Log P value is determined by measurement of LC-UV, in an acidic range, with 0.1% formic acid in water and acetonitrile as eluent (linear gradient from 10% acetonitrile to 95% acetonitrile).
[^b] Log P value is determined by measurement of LC-UV, in a neutral range, with 0.001 molar ammonium acetate solution in water and acetonitrile as eluent (linear gradient from 10% acetonitrile to 95% acetonitrile).
[^c] Log P value is determined by measurement of LC-UV, in an acidic range, with 0.1% phosphoric acid and acetonitrile as eluent (linear gradient from 10% acetonitrile to 95% acetonitrile).
Calibration was done with straight-chain alkan-2-ones (with 3 to 16 carbon atoms) with known Log P values (measurement of Log P values using retention times with linear interpolation between successive alkanones). Lambda-max-values were determined using UV-spectra from 200 nm to 400 nm and the peak values of the chromatographic signals.

[2] = test system: Phakopsora pachyrhizi; assay: Biological Example C2 (comparative): in vivo preventive test on Phakopsora pachyrhizi (soybeans); details: rate of application 250 ppm, evaluated 7 days after inoculation
Description: (§1) To produce a suitable preparation of active compound, 1 part by weight of active compound is mixed with the stated amounts of solvent and emulsifier, and the concentrate is diluted with water to the desired concentration.
To test for preventive activity, young plants are sprayed with the preparation of active compound at the stated rate of application. After the spray coating has dried on, the plants are inoculated with an aqueous spore suspension of the causal agent of soybean rust (Phakopsora pachyrhizi) and stay for 24 h without light in an incubation cabinet at approximately 24° C. and a relative atmospheric humidity of 95%. The plants remain in the incubation cabinet at approximately 24° C. and a relative atmospheric humidity of approximately 80% and a day/night interval of 12 h.
(§2) The test is evaluated 7 days after the inoculation. 0% means an efficacy which corresponds to that of the untreated control, while an efficacy of 100% means that no disease is observed.

[3] = test system: Alternaria solani; assay: Biological Example C1 (comparative): in vivo preventive test on Alternaria solani (tomatoes); details: rate of application 50 ppm, evaluated 3 days after inoculation
Description: as §1
(§3) To test for preventive activity, young plants are sprayed with the preparation of active compound at the stated rate of application. After the spray coating has dried on, the plants are inoculated with an aqueous spore suspension of Alternaria solani. The plants are then placed in an incubation cabinet at approximately 20° C. and a relative atmospheric humidity of 100%.
The test is evaluated 3 days after the inoculation. 0% means an efficacy which corresponds to that of the untreated control while an efficacy of 100% means that no disease is observed.

[4] = test system: Sphaerotheca fuliginea; assay: Biological Example C3 (comparative): in vivo preventive test on Sphaerotheca fuliginea (cucumbers); details: rate of application 50 ppm, evaluated 7 days after inoculation
Description: as §1
as §3, with “Sphaerotheca fuliginea.” for “Alternaria solani.”, “a greenhouse” for “an incubation cabinet”, “23°” for “20°”, “approximately 70%.” for “100%.”
as §2

[5] = LC-UV, acidic range, 0.1% formic acid in water and acetonitrile as eluent, read-out: LogP [a]

For C#CCOc1cc(F)cc(F)c1Nc1c(-c2ccc(F)cc2Cl)c(C)nn1C [Example I-01], the chromatographic logP ([1]; reversed phase HPLC columns, LC-UV, acidic range, 0.1% formic acid in water and acetonitrile as eluent, read-out: LogP [a]) was 3.26, the chromatographic logP ([1]; reversed phase HPLC columns, LC-UV, acidic range, 0.1% phosphoric acid and acetonitrile as eluent, read-out: LogP [c]) was 3.1 and the Efficacy in % [2] was 94%. For the same compound, the Efficacy in % [3] was 96% and the Efficacy in % [4] was 98%.
With C#CCOc1cccc(Cl)c1Nc1c(-c2ccc(F)cc2F)c(C)nn1C [Example I-67] the “LogP [a]” value [1] was 3.26^[a].
For C=CCOc1cc(F)c(N=C=S)c(F)c1 [Z-ii-01], the “LogP [a]” value [1] was 4.54^[a].
With C#CCOc1cc(F)c(N=C=S)c(F)c1 [Z-ii-02] the “LogP [a]” value [1] was 3.86^[a].
C#CCOc1cc(F)cc(F)c1N=C=S [Z-ii-03, 3,5-difluoro-2-isothiocyanatophenyl prop-2-yn-1-yl ether] gave a chromatographic logP [1, 5] of 3.68 and a chromatographic logP ([1]; pH 2.3, read-out: log P (pH 2.3)) of 3.72.
With C=CCOc1ccc(N=C=S)cc1 [Z-ii-05] the “LogP [a]” value [1] was 4.06 and the “LogP [b]” value [1] was 4.09.
In the case of C=CCOc1ccc(N=C=S)cc1F [Z-ii-06], the “LogP [a]” value [1] is reported as 4.06^[a].
With C=CCOc1ccc(F)c(N=C=S)c1 [Z-ii-07] the “LogP [a]” value [1] was 4.30^[a].
For C#CCOc1ccc(F)c(N=C=S)c1 [Z-ii-08], the “LogP [a]” value [1] was 3.62^[a].
For C#CCOc1cc(F)c(N=C=S)cc1F [Z-ii-09], the “LogP [a]” value [1] was 3.64^[a].
For C=CCOc1cc(F)c(N=C=S)cc1F [Z-ii-10], the “LogP [a]” value [1] was 4.24^[a].
In the case of C#CCOc1ccc(N=C=S)cc1F [Z-ii-11], the “LogP [a]” value [1] is reported as 3.47^[a].
In the case of C#CCOc1ccc(N=C=S)c(Cl)c1 [Z-ii-12], the “LogP [a]” value [1] is reported as 3.99 and the “LogP [b]” value [1] is reported as 3.96.
For C=CCOc1ccc(N=C=S)c(Cl)c1 [Z-ii-13], the “LogP [a]” value [1] was 4.72^[a]; 4.72^[b] and the “LogP [b]” value [1] was 4.72^[a]; 4.72^[b].
With C#CCOc1cccc(Cl)c1N=C=S [Z-ii-14] the “LogP [a]” value [1] was 3.86^[a].
In the case of C=CCOc1ccc(F)cc1N=C=S [Z-ii-16], the “LogP [a]” value [1] is reported as 4.24^[a].
With C#CCOc1ccc(F)cc1N=C=S [Z-ii-17] the “LogP [a]” value [1] was 3.62^[a].
For C#CCOc1cc(C)ccc1N=C=S [Z-ii-18], the “LogP [a]” value [1] was 3.82^[a].
In the case of C=CCOc1ccc(C#N)cc1N=C=S [Z-ii-19], the “LogP [a]” value [1] is reported as 3.71^[a].
In the case of C#CCOc1ccc(C#N)cc1N=C=S [Z-ii-20], the “LogP [a]” value [1] is reported as 3.13^[a].
Work on C=CCOc1ccc(CC(C)=O)c(F)c1 [Z-iv-01, 1-[4-(allyloxy)-2-fluorophenyl]acetone] yielded a chromatographic logP [1, 5] of 2.6.
For COc1ccc(CC(C)=O)c(F)c1 [Z-iv-02, 1-(2-fluoro-4-methoxyphenyl)acetone], the chromatographic logP [1, 5] was 1.95.
In the case of C#CCOc1cc(F)cc(F)c1NC(=S)C(C(C)=O)c1ccc(F)cc1Cl (stereo not shown) [Z-ix-03], the “LogP [a]” value [1] is reported as 3.65^[a].
CCCOc1cc(F)cc(F)c1Nc1c(-c2ccc(F)cc2Cl)c(C)nn1C [drawing 18, reference compound] gave an Efficacy in % [3] of 40%.
CCCOc1cc(F)cc(F)c1Nc1c(-c2ccc(F)cc2Cl)c(C)nn1C [drawing 20, reference compound] showed an Efficacy in % [2] of 53%.
For CCCOc1cc(F)cc(F)c1Nc1c(-c2ccc(F)cc2Cl)c(C)nn1C [drawing 22, reference compound], the Efficacy in % [4] was 10%.
